{"source": "patent US20190358181A1", "about": "“METHODS FOR AUTISM SPECTRUM DISORDER PHARMACOTHERAPY” (priority 2017, published 2019)", "test_system": "610 metabolites from 63 biochemical pathways", "assay": "Targeted broad-spectrum plasma metabolomic analysis (LC-MS/MS), paired pre-infusion vs post-infusion (2-days and 6-weeks)", "format": "in vivo, human", "protocol": "Targeted, broad-spectrum, plasma metabolomic analysis of 610 metabolites from 63 biochemical pathways was performed by high performance liquid chromatography and tandem mass spectrometry (LC-MS/MS) on the samples collected from patients in Example 1. Venous blood was collected between the hours of 8 am and 5 pm, at least 3 hours after the last meal, into lithium-heparin vacutainer tubes (BD #367884). Plasma was separated by centrifugation at 900 g×10 minutes at room temperature within one hour of collection. The resulting fresh lithium-heparin plasma was transferred to labeled 1.2 ml or 2.0 ml externally threaded cryotubes with a minimum headspace air gap for storage at −80° C. for analysis. Samples were analyzed on an AB SCIEX QTRAP 5500 triple quadrupole mass spectrometer equipped with a Turbo V electrospray ionization (ESI) source, Shimadzu LC-20A UHPLC system, and a PAL CTC autosampler. Typically, 90 μl of plasma was thawed on ice and transferred to a 1.7 ml Eppendorf tube. Five (5.0) μl of a cocktail containing 25-35 commercial stable isotope internal standards, and 5.0 μl of 57 stable isotope internal standards that were custom-synthesized in E. coli NCM3722, Caenorhabditis elegans N2, and Komagataella phaffii (ATCC 76273; formerly known as Pichia pastoris) by metabolic labeling with 13C-glucose and 13C-bicarbonate, were added, mixed, and incubated for 10 min at 20° C. to permit small molecules and vitamins in the internal standards to associate with plasma binding proteins. Macromolecules (protein, DNA, RNA, glycans, etc.) were precipitated by extraction with 4 volumes (400 μl) of cold (−20° C.), acetonitrile:methanol (50:50) (LCMS grade, Cat #LC015-2.5 and GC230-4, Burdick & Jackson, Honeywell), vortexed vigorously, and incubated on crushed ice for 10 min, then removed by centrifugation at 16,000 g×10 min at 4° C. The supernatants containing the extracted metabolites and internal standards in the resulting 40:40:20 solvent mix of acetonitrile:methanol:water were transferred to labeled cryotubes and stored at −80° C. for LCMS/MS analysis.\nLC-MS/MS analysis was performed by scheduled multiple reaction monitoring (sMRM) under Analyst v1.6.2 software control in both negative and positive mode with rapid polarity switching (50 ms). Nitrogen was used for curtain gas (set to 30), collision gas (set to high), ion source gas 1 and 2 (set to 35). The source temperature was 500° C. Spray voltage was set to −4500 V in negative mode and 5500 V in positive mode. The values for Q1 and Q3 mass-to-charge ratios (m/z), declustering potential (DP), entrance potential (EP), collision energy (CE), and collision cell exit potential (CXP) were determined and optimized for each MRM for each metabolite. Ten microliters of extract was injected by PAL CTC autosampler via a 10 μl stainless steel loop into a 250 mm×2.0 mm, 4 μm polymer based NH2 HPLC column (Asahipak NH2P-40 2E, Showa Denko America, Inc., NY) held at 25° C. for chromatographic separation. The mobile phase was solvent A: 95% water with 20 mM (NH4)2CO3 (Sigma, Fluka Cat #74415-250G-F), 5% acetonitrile, and 38 mM NH4OH (Sigma, Fluka Cat #17837-100ML), final pH 9.75; solvent B: 100% acetonitrile. Separation was achieved using the following gradient: 0-3.5 min: 95% B, 3.6-8 min: 85% B, 8.1-13 min: 75% B, 13.5-35 min: 0% B, 36-46 min: 95% B, 46.1 min: end. The flow rate was 200 μl/min. Pump pressures ranged from 920-2600 psi over the course of the gradient. All the samples were kept at 4° C. during analysis. The chromatographic peaks were identified using MultiQuant (v3.0, Sciex), confirmed by manual inspection, and the peak areas integrated. […]", "key": {"[1]": {"conditions": "Tyrosine and Phenylalanine Metabolism, 2-days"}, "[2]": {"conditions": "Tyrosine and Phenylalanine Metabolism, 6-weeks"}, "[3]": {"conditions": "Vitamin C (Ascorbate) Metabolism, 6-weeks"}, "[4]": {"conditions": "Vitamin D (Calciferol) Metabolism, 2-days"}, "[5]": {"conditions": "cis-aconitic acid, plasma, 6-weeks"}, "[6]": {"conditions": "lsovalerylglycine, plasma, 6-weeks"}, "[7]": {"conditions": "p-Hydroxyphenylacetic acid, plasma, 6-weeks"}, "[8]": {"conditions": "plasma, 2-days after infusion vs pre-infusion, Amino Acid Metabolism (not otherwise covered)"}, "[9]": {"conditions": "plasma, 2-days after infusion vs pre-infusion, Amino-Sugar, Galactose, & Non-Glucose Metabolism"}, "[10]": {"conditions": "plasma, 2-days after infusion vs pre-infusion, Bile Salt Metabolism"}, "[11]": {"conditions": "plasma, 2-days after infusion vs pre-infusion, Bioamines and Neurotransmitter Metabolism"}, "[12]": {"conditions": "plasma, 2-days after infusion vs pre-infusion, Branch Chain Amino Acid Metabolism"}, "[13]": {"conditions": "plasma, 2-days after infusion vs pre-infusion, Cardiolipin Metabolism"}, "[14]": {"conditions": "plasma, 2-days after infusion vs pre-infusion, Ceramide Metabolism"}}, "data": [{"smiles": "Cc1ccc(C(=O)Nc2ccc(S(=O)(=O)O)c3cc(S(=O)(=O)O)cc(S(=O)(=O)O)c23)cc1NC(=O)c1cccc(NC(=O)Nc2cccc(C(=O)Nc3cc(C(=O)Nc4ccc(S(=O)(=O)O)c5cc(S(=O)(=O)O)cc(S(=O)(=O)O)c45)ccc3C)c2)c1", "note": "[Suramin, suramin]", "values": [{"measurement": "Increased", "setting": "[1]", "result": 1}, {"measurement": "Observed Hits in the Top 61 Metabolites", "setting": "[1]", "result": 1}, {"measurement": "Decreased", "setting": "[2]", "result": 0}, {"measurement": "Fold Enrichment (Obs/Exp)", "setting": "[2]", "result": 6.0}, {"measurement": "Fraction of Impact (VIP Score) Explained (% of 94.6)", "setting": "[2]", "result": 4, "unit": "%"}, {"measurement": "Impact (Sum VIP Score)", "setting": "[2]", "result": 3.7}, {"measurement": "Increased", "setting": "[2]", "result": 2}, {"measurement": "Observed Hits in the Top 48 Metabolites", "setting": "[2]", "result": 2}, {"measurement": "Linear Ratio", "setting": "Uridine, plasma, 6-weeks", "result": 1.244}, {"measurement": "VIP Score", "setting": "Uridine, plasma, 6-weeks", "result": 1.764}, {"measurement": "Z Abs", "setting": "Uridine, plasma, 6-weeks", "result": 0.928}, {"measurement": "Z Score", "setting": "Uridine, plasma, 6-weeks", "result": 0.928}, {"measurement": "Decreased", "setting": "[3]", "result": 0}, {"measurement": "Fold Enrichment (Obs/Exp)", "setting": "[3]", "result": 4.5}, {"measurement": "Fraction of Impact (VIP Score) Explained (% of 94.6)", "setting": "[3]", "result": 2, "unit": "%"}, {"measurement": "Impact (Sum VIP Score)", "setting": "[3]", "result": 2.0}, {"measurement": "Increased", "setting": "[3]", "result": 1}, {"measurement": "Observed Hits in the Top 48 Metabolites", "setting": "[3]", "result": 1}, {"measurement": "Decreased", "setting": "[4]", "result": 1}, {"measurement": "Fold Enrichment (Obs/Exp)", "setting": "[4]", "result": 2.4}, {"measurement": "Fraction of Impact (VIP Score) Explained (% of 119.7)", "setting": "[4]", "result": 3, "unit": "%"}, {"measurement": "Impact (Sum VIP Score)", "setting": "[4]", "result": 3.1}, {"measurement": "Increased", "setting": "[4]", "result": 0}, {"measurement": "Observed Hits in the Top 61 Metabolites", "setting": "[4]", "result": 1}, {"measurement": "Linear Ratio", "setting": "[5]", "result": 1.278}, {"measurement": "VIP Score", "setting": "[5]", "result": 1.852}, {"measurement": "Z Abs", "setting": "[5]", "result": 0.928}, {"measurement": "Z Score", "setting": "[5]", "result": 0.928}, {"measurement": "metabolites significantly changed by suramin (total)", "setting": "day 2", "result": 61}, {"measurement": "Linear Ratio", "setting": "[6]", "result": 2.027}, {"measurement": "VIP Score", "setting": "[6]", "result": 1.888}, {"measurement": "Z Abs", "setting": "[6]", "result": 0.901}, {"measurement": "Z Score", "setting": "[6]", "result": 0.901}, {"measurement": "Linear Ratio", "setting": "[7]", "result": 1.306}, {"measurement": "VIP Score", "setting": "[7]", "result": 2.203}, {"measurement": "Z Abs", "setting": "[7]", "result": 2.226}, {"measurement": "Z Score", "setting": "[7]", "result": 2.226}, {"measurement": "1-Methyl-adenine (1-MA)", "setting": "plasma", "result": "increased"}, {"measurement": "AICAR", "setting": "plasma", "result": "increased"}, {"measurement": "cAMP", "setting": "plasma", "result": "decreased"}, {"measurement": "dGDP", "setting": "plasma", "result": "decreased"}, {"measurement": "Linear Ratio, Alanine", "setting": "[8]", "result": 1.193}, {"measurement": "VIP Score, Alanine", "setting": "[8]", "result": 1.776}, {"measurement": "Z Abs, Alanine", "setting": "[8]", "result": 1.066}, {"measurement": "Z Score, Alanine", "setting": "[8]", "result": 1.066}, {"measurement": "Linear Ratio, Myoinositol", "setting": "[9]", "result": 1.286}, {"measurement": "VIP Score, Myoinositol", "setting": "[9]", "result": 1.645}, {"measurement": "Z Abs, Myoinositol", "setting": "[9]", "result": 0.785}, {"measurement": "Z Score, Myoinositol", "setting": "[9]", "result": 0.785}, {"measurement": "Linear Ratio, Chenodeoxyglycocholic acid", "setting": "[10]", "result": 2.787}, {"measurement": "Linear Ratio, Glycocholic acid", "setting": "[10]", "result": 2.344}, {"measurement": "Linear Ratio, Taurocholic acid", "setting": "[10]", "result": 2.183}, {"measurement": "Linear Ratio, Taurodeoxycholic acid Pool", "setting": "[10]", "result": 2.614}, {"measurement": "VIP Score, Chenodeoxyglycocholic acid", "setting": "[10]", "result": 3.171}, {"measurement": "VIP Score, Glycocholic acid", "setting": "[10]", "result": 3.090}, {"measurement": "VIP Score, Taurocholic acid", "setting": "[10]", "result": 2.615}, {"measurement": "VIP Score, Taurodeoxycholic acid Pool", "setting": "[10]", "result": 3.048}, {"measurement": "Z Abs, Chenodeoxyglycocholic acid", "setting": "[10]", "result": 1.610}, {"measurement": "Z Abs, Glycocholic acid", "setting": "[10]", "result": 2.020}, {"measurement": "Z Abs, Taurocholic acid", "setting": "[10]", "result": 1.102}, {"measurement": "Z Abs, Taurodeoxycholic acid Pool", "setting": "[10]", "result": 1.326}, {"measurement": "Z Score, Chenodeoxyglycocholic acid", "setting": "[10]", "result": 1.610}, {"measurement": "Z Score, Glycocholic acid", "setting": "[10]", "result": 2.020}, {"measurement": "Z Score, Taurocholic acid", "setting": "[10]", "result": 1.102}, {"measurement": "Z Score, Taurodeoxycholic acid Pool", "setting": "[10]", "result": 1.326}, {"measurement": "Linear Ratio, Dopamine", "setting": "[11]", "result": 0.877}, {"measurement": "Linear Ratio, L-Glutamic acid", "setting": "[11]", "result": 0.797}, {"measurement": "VIP Score, Dopamine", "setting": "[11]", "result": 1.653}, {"measurement": "VIP Score, L-Glutamic acid", "setting": "[11]", "result": 1.641}, {"measurement": "Z Abs, Dopamine", "setting": "[11]", "result": 0.642}, {"measurement": "Z Abs, L-Glutamic acid", "setting": "[11]", "result": 0.619}, {"measurement": "Z Score, Dopamine", "setting": "[11]", "result": "−0.642"}, {"measurement": "Z Score, L-Glutamic acid", "setting": "[11]", "result": "−0.619"}, {"measurement": "Linear Ratio, Isovalerylglycine", "setting": "[12]", "result": 1.951}, {"measurement": "Linear Ratio, L-Isoleucine", "setting": "[12]", "result": 1.094}, {"measurement": "Linear Ratio, L-Valine", "setting": "[12]", "result": 1.165}, {"measurement": "Linear Ratio, Tiglylglycine", "setting": "[12]", "result": 1.141}, {"measurement": "VIP Score, Isovalerylglycine", "setting": "[12]", "result": 1.783}, {"measurement": "VIP Score, L-Isoleucine", "setting": "[12]", "result": 2.136}, {"measurement": "VIP Score, L-Valine", "setting": "[12]", "result": 1.808}, {"measurement": "VIP Score, Tiglylglycine", "setting": "[12]", "result": 1.562}, {"measurement": "Z Abs, Isovalerylglycine", "setting": "[12]", "result": 0.852}, {"measurement": "Z Abs, L-Isoleucine", "setting": "[12]", "result": 0.815}, {"measurement": "Z Abs, L-Valine", "setting": "[12]", "result": 0.749}, {"measurement": "Z Abs, Tiglylglycine", "setting": "[12]", "result": 0.657}, {"measurement": "Z Score, Isovalerylglycine", "setting": "[12]", "result": 0.852}, {"measurement": "Z Score, L-Isoleucine", "setting": "[12]", "result": 0.815}, {"measurement": "Z Score, L-Valine", "setting": "[12]", "result": 0.749}, {"measurement": "Z Score, Tiglylglycine", "setting": "[12]", "result": 0.657}, {"measurement": "Linear Ratio, CL(18:2/18:2/18:2/18:1)", "setting": "[13]", "result": 1.102}, {"measurement": "Linear Ratio, CL(18:2/18:2/18:2/18:2)", "setting": "[13]", "result": 1.181}, {"measurement": "Linear Ratio, Ceramide(d18:1/18:2)", "setting": "[14]", "result": 1.337}, {"measurement": "VIP Score, Ceramide(d18:1/18:2)", "setting": "[14]", "result": 1.521}]}]}
